Data from BindingDB's records for doi:10.1016/0968-0896(96)00075-2 (Sapienza University of Rome, 1996).

The compounds below were run against T1, Gag-Pol polyprotein [588-1027]/[588-1147] (Human immunodeficiency virus 1, UniProt P04585) (assay: HIV-1 RT Assay). Conditions: pH 7.8; 37 °C.
T1 construct: 588-1027; 588-1147

Going from `CCCN1C(=O)c2cccn2S(=O)(=O)c2ccccc21` [9-propyl-2-thia-3,9-diazatricyclo[8.4.0.0^{3,7}]tetradeca-1(10),4,6,11,13-pentaene-2,2,8-trione] to `CCN1C(=O)c2cccn2S(=O)(=O)c2ccccc21` [9-ethyl-2-thia-3,9-diazatricyclo[8.4.0.0^{3,7}]tetradeca-1(10),4,6,11,13-pentaene-2,2,8-trione], the IC50 falls from 24 µM to 10 µM (2.4-fold). The second is the more potent here.

`C=CCN1C(=O)c2cccn2S(=O)(=O)c2cc(Cl)ccc21` [13-chloro-9-(prop-2-en-1-yl)-2-thia-3,9-diazatricyclo[8.4.0.0^{3,7}]tetradeca-1(10),4,6,11,13-pentaene-2,2,8-trione] and `C/C=C\CN1C(=O)c2cccn2S(=O)(=O)c2cc(Cl)ccc21` [9-[(2Z)-but-2-en-1-yl]-13-chloro-2-thia-3,9-diazatricyclo[8.4.0.0^{3,7}]tetradeca-1(10),4,6,11,13-pentaene-2,2,8-trione] are within 1.5-fold of each other in IC50: 2.9 µM for the first, 3.1 µM for the second.

Compared with `Cn1c2ccccc2n2c(c3cccn31)=C(O)N(CCN1CCOCC1)CC2=O` [7-methyl-17-[2-(morpholin-4-yl)ethyl]-6,7,14,17-tetraazatetracyclo[12.4.0.0^{2,6}.0^{8,13}]octadeca-2,4,8(13),9,11-pentaene-15,18-dione], `Cn1c2ccccc2n2c(c3cccn31)=C(O)N(CCN1CCCCC1)CC2=O` [7-methyl-17-[2-(piperidin-1-yl)ethyl]-6,7,14,17-tetraazatetracyclo[12.4.0.0^{2,6}.0^{8,13}]octadeca-2,4,8(13),9,11-pentaene-15,18-dione] is higher in IC50: 6.3 µM for the first, greater than 100 µM for the second.

Compared with `CN1C(=O)c2cccn2S(=O)(=O)c2ccccc21` [10-methyi-5H-pyrrolo1,2-b] [1,2,5] benzothiadiazepin-11(10H)-one-5,5-dioxide], `CC(C)N1C(=O)c2cccn2S(=O)(=O)c2ccccc21` [9-(propan-2-yl)-2-thia-3,9-diazatricyclo[8.4.0.0^{3,7}]tetradeca-1(10),4,6,11,13-pentaene-2,2,8-trione] is 1.7-fold lower in IC50: 11 µM for the first, 6.3 µM for the second.

Compared with `O=C1Nc2ccccc2S(=O)(=O)n2cccc21` [2-thia-3,9-diazatricyclo[8.4.0.0^{3,7}]tetradeca-1(10),4,6,11,13-pentaene-2,2,8-trione], `O=C1Nc2ccc(Cl)cc2S(=O)(=O)n2cccc21` [13-chloro-2-thia-3,9-diazatricyclo[8.4.0.0^{3,7}]tetradeca-1(10),4,6,11,13-pentaene-2,2,8-trione] is 5.7-fold lower in IC50: 4 µM for the first, 0.7 µM for the second. The second is the more potent here.

First: O=C1Nc2ccccc2Sn2cccc21 [5H-Pyrrolo [1,2-b] [1,2,5] benzothiadiazepin-11 (10H) -one]
Second: C/C=C/CN1C(=O)c2cccn2S(=O)(=O)c2ccccc21 [9-[(2E)-but-2-en-1-yl]-2-thia-3,9-diazatricyclo[8.4.0.0^{3,7}]tetradeca-1(10),4,6,11,13-pentaene-2,2,8-trione]
The IC50 of the first is higher: greater than 100 µM for the first, 21 µM for the second. The second is the more potent here.

Compared with `CCN1C(=O)c2cccn2S(=O)(=O)c2cc(Cl)ccc21` [13-chloro-9-ethyl-2-thia-3,9-diazatricyclo[8.4.0.0^{3,7}]tetradeca-1(10),4,6,11,13-pentaene-2,2,8-trione], `CN1C(=O)c2cccn2S(=O)(=O)c2cc(Cl)ccc21` [13-chloro-9-methyl-2-thia-3,9-diazatricyclo[8.4.0.0^{3,7}]tetradeca-1(10),4,6,11,13-pentaene-2,2,8-trione] is 5.4-fold lower in IC50: 2.7 µM for the first, 0.5 µM for the second.

Going from `C=CCN1C(=O)c2cccn2S(=O)(=O)c2ccccc21` [9-(prop-2-en-1-yl)-2-thia-3,9-diazatricyclo[8.4.0.0^{3,7}]tetradeca-1(10),4,6,11,13-pentaene-2,2,8-trione] to `CCOC(=O)CN1C(=O)c2cccn2S(=O)(=O)c2ccccc21` [ethyl 2-(2,2,8-trioxo-2-thia-3,9-diazatricyclo[8.4.0.0^{3,7}]tetradeca-1(10),4,6,11,13-pentaen-9-yl)acetate], the IC50 rises from 9.5 µM to 31 µM (3.3-fold). The first is the more potent here.

`CN(C)CCCN1CC(=O)n2c(c3cccn3n(C)c3ccccc32)=C1O` [17-[3-(dimethylamino)propyl]-7-methyl-6,7,14,17-tetraazatetracyclo[12.4.0.0^{2,6}.0^{8,13}]octadeca-2,4,8(13),9,11-pentaene-15,18-dione] was tested, and the IC50 was 24 µM.
